# In patent publication US20160264616A1, “THERAPEUTIC COMPOUNDS AND METHODS” (priority 2015, published 2016):
# Tested on: RGS17ΔN:Gαo interaction in HEK293T cells
# Experiment: RGS localization assay, GFP-RGS17ΔN co-transfected with hGαo in HEK293T cells
# Type: cell-based, human
# Settings: for delocalization of RGS17ΔN from the membrane: 100 μM compound
# Description: HEK293T cells co-transfected with GFP-RGS17FL and human Gαo were treated with UI-5, UI-1590 and […] to determine if the compounds could disrupt the RGS17:Gαo interaction that could drive RGS17 to the membrane. […] To test this hypothesis, we constructed a GFP-RGS17 fusion protein with an N-terminal truncation, removing the cysteine-rich motif. […] As a negative control, we tested a known RGS4 inhibitor (CCG-50014) in this assay against RGS17ΔN (21). […] Finally, to ensure the localization was not due to the GFP tag, pAcGFP vector was co-transfected into HEK293T cells with hGαo. […] Cross-sectional fluorescence intensity analysis was used to quantify the intensity of signal at a cross section of the cell. Average signal at the membrane and in the cytoplasm were calculated and change in signal intensity was assessed between time zero and time final. […] Additionally, the control condition of CCG-50014 was subject to the same analyses as the lead compound.
# Twenty four (24) hours prior to plating, assay plates were coated with 30 μl poly-D-lysine per well. Human Embryonic Kidney 293T cells (HEK293T) were plated in to 96 well tissue culture treated glass bottom view plates (Perkin Elmer, Part No. 6005430) at a density of 25K cells per well. 24 hours post seeding, cells were transfected with hGαo in pCDNA 3.1(+), pAcGFPRGS17 FL, pAcGFP RGS17ΔN, empty pAcGFP, hGαo+pAcGFPRGS17 FL, hGαo+pAcGFP RGS17ΔN, or hGαo+empty pAcGFP vector using Lipofectamine 2000 (Life Technologies) as the transfection reagent and according to manufacture protocols. 24 hours post transfection, cell media was removed and replaced with […] serum free, phenol red free DMEM (Life Technologies, Ref No. 31053-028). Cells were then imaged using a Zeiss LSM510 confocal microscope (University of Iowa Central Microscopy Core). Images were analyzed using NIH Image J software and Graphpad Prism 6.
# Compounds at 2× final desired concentrations were diluted in serum free, phenol red free DMEM.
smiles,measurement,setting,value
"Cc1ccc(-n2sc(=O)n(Cc3ccc(F)cc3)c2=O)cc1 [CCG-50014, reference compound]",delocalization of RGS17ΔN from the membrane,,No delocalization was observed
same,delocalization of RGS17ΔN from the membrane,listed as 50014,did not result in RGS17ΔN delocalization
same,change of membrane and cytosolic fluorescence signal (Image J cross-section),time zero versus time final,no significant change of signal
